# Source: US5840684A, “Glycopeptide antibiotic derivatives” (Eli Lilly and Company, priority 1995, dated 1998)
# How the values were obtained:
# [1] = system: Streptococcus pneumoniae P1; assay: broth micro-dilution MIC; assay type: cell-based
# Experimental: (§1) The formula I compounds have in vitro and in vivo activity against Gram-positive pathogenic bacteria. The MIC's were determined using a standard broth micro-dilution assay.
# [2] = system: Staphylococcus haemolyticus 415; assay: broth micro-dilution MIC; assay type: cell-based
# Experimental: as §1
# [3] = system: Staphylococcus haemolyticus 105; assay: broth micro-dilution MIC; assay type: cell-based
# Experimental: as §1
# [4] = system: Staphylococcus epidermidis 270; assay: broth micro-dilution MIC; assay type: cell-based
# Experimental: as §1
# [5] = system: Enterococcus gallinarum 245; assay: broth micro-dilution MIC; assay type: cell-based; conditions: Enterococcus gallinarum 245
# Experimental: as §1
# Entercoccus faecium 180 = assay: broth micro-dilution MIC; assay type: cell-based; conditions: Entercoccus faecium 180
# Experimental: as §1
# [6] = system: Staphylococcus aureus 491; assay: broth micro-dilution MIC; assay type: cell-based
# Experimental: (§2) The MIC's were determined using a standard broth micro-dilution assay.
# [7] = system: Staphylococcus aureus X400; assay: broth micro-dilution MIC; assay type: cell-based
# Experimental: as §2
# [8] = system: Staphylococcus aureus 447; assay: broth micro-dilution MIC; assay type: cell-based
# Experimental: as §2
# [9] = system: Staphylococcus aureus 489; assay: broth micro-dilution MIC; assay type: cell-based
# Experimental: as §2
# [10] = system: Staphylococcus aureus X778; assay: broth micro-dilution MIC; assay type: cell-based
# Experimental: as §2
# [11] = system: Staphylococcus aureus 446; assay: broth micro-dilution MIC; assay type: cell-based
# Experimental: as §2
# [12] = system: Staphylococcus aureus SA1199A; assay: broth micro-dilution MIC; assay type: cell-based
# Experimental: as §2
# [13] = system: Entercoccus faecium 180-1; assay: broth micro-dilution MIC; assay type: cell-based
# Experimental: as §2
# [14] = system: Streptococcus pyogenes C203; assay: broth micro-dilution MIC; assay type: cell-based
# Experimental: as §2
# Entercoccus faecium 2041 = assay: broth micro-dilution MIC; assay type: cell-based; conditions: Entercoccus faecium 2041
# Experimental: as §1
# [15] = system: Staphylococcus aureus S13E; assay type: cell-based
# Experimental: as §2
# [16] = system: Staphylococcus aureus SA1199B; assay type: cell-based
# Experimental: as §2
# [17] = system: vancomycin-susceptible enterococci; assay: broth micro-dilution, mean geometric MIC; assay type: cell-based, Enterococcus faecium and Enterococcus faecalis; conditions: enterococci, 24-hour incubation
# [18] = system: vancomycin-resistant enterococci; assay: broth micro-dilution, mean geometric MIC; assay type: cell-based, Enterococcus faecium and Enterococcus faecalis; conditions: enterococci, 24-hour incubation
# Entercoccus faecium 276 = assay: broth micro-dilution MIC; assay type: cell-based
# Experimental: as §2
SMILES,MIC [1],MIC [2],MIC [3],MIC [4],MIC [5],MIC (Entercoccus faecium 180),MIC [6],MIC [7],MIC [8],MIC [9],MIC [10],MIC [11],MIC [12],MIC [13],MIC [14],MIC (Entercoccus faecium 2041),MIC [16],"mean geometric MIC, Vancomycin Sensitive Strains [17]","mean geometric MIC, Vancomycin Resistant Strains [18]",MIC (Entercoccus faecium 276),also measured
CNC(CC(C)C)C(=O)NC1C(=O)NC(CC(N)=O)C(=O)NC2C(=O)NC3C(=O)NC(C(=O)NC(C(=O)O)c4cc(O)cc(O)c4-c4cc3ccc4O)C(OC3CC(C)(N)C(O)C(C)O3)c3ccc(c(Cl)c3)Oc3cc2cc(c3OC2OC(CO)C(O)C(O)C2OC2CC(C)(NCc3ccc(OCC(O)CO)cc3)C(O)C(C)O2)Oc2ccc(cc2Cl)C1O (stereo not drawn) [Compound 177],8 µg/mL,16 µg/mL,4 µg/mL,1 µg/mL,16 µg/mL,4 µg/mL,0.5 µg/mL,≤ 0.06 µg/mL,4 µg/mL,≤ 0.06 µg/mL,2 µg/mL,0.5 µg/mL,0.5 µg/mL,≤ 0.06 µg/mL,16 µg/mL,–,–,–,–,–,–
CNC(CC(C)C)C(=O)NC1C(=O)NC(CC(N)=O)C(=O)NC2C(=O)NC3C(=O)NC(C(=O)NC(C(=O)O)c4cc(O)cc(O)c4-c4cc3ccc4O)C(OC3CC(C)(N)C(O)C(C)O3)c3ccc(c(Cl)c3)Oc3cc2cc(c3OC2OC(CO)C(O)C(O)C2OC2CC(C)(NCC3CCC4CCCC43)C(O)C(C)O2)Oc2ccc(cc2Cl)C1O (stereo not drawn) [Compound 190],≤ 0.06 µg/mL,8 µg/mL,8 µg/mL,2 µg/mL,8 µg/mL,8 µg/mL,0.125 µg/mL,≤ 0.06 µg/mL,1 µg/mL,0.125 µg/mL,0.125 µg/mL,–,≤ 0.06 µg/mL,≤ 0.06 µg/mL,≤ 0.06 µg/mL,≤ 0.06 µg/mL,0.5 µg/mL,0.29 µg/mL,6.7 µg/mL,0.125 µg/mL,MIC [15]: 0.125 µg/mL
CCCCCCCC#Cc1ccc(CN[C@@]2(C)C[C@H](O[C@H]3[C@H](Oc4c5cc6cc4Oc4ccc(cc4Cl)[C@@H](O[C@H]4C[C@](C)(N)[C@@H](O)[C@H](C)O4)[C@@H]4NC(=O)[C@H](NC(=O)[C@@H]6NC(=O)[C@H](CC(N)=O)NC(=O)[C@H](NC(=O)[C@@H](CC(C)C)NC)[C@H](O)c6ccc(c(Cl)c6)O5)c5ccc(O)c(c5)-c5c(O)cc(O)cc5[C@@H](C(=O)O)NC4=O)O[C@H](CO)[C@@H](O)[C@@H]3O)O[C@@H](C)[C@@H]2O)cc1 [Compound 232],≤ 0.06 µg/mL,32 µg/mL,2 µg/mL,8 µg/mL,32 µg/mL,0.5 µg/mL,4 µg/mL,8 µg/mL,–,8 µg/mL,8 µg/mL,4 µg/mL,2 µg/mL,1 µg/mL,≤ 0.06 µg/mL,2 µg/mL,32 µg/mL,0.29 µg/mL,0.71 µg/mL,8 µg/mL,MIC [15]: 8 µg/mL
CNC(CC(C)C)C(=O)NC1C(=O)NC(CC(N)=O)C(=O)NC2C(=O)NC3C(=O)NC(C(=O)NC(C(=O)O)c4cc(O)cc(O)c4-c4cc3ccc4O)C(OC3CC(C)(N)C(O)C(C)O3)c3ccc(c(Cl)c3)Oc3cc2cc(c3OC2OC(CO)C(O)C(O)C2OC2CC(C)(NCc3ccc(-c4ccccc4[N+](=O)[O-])cc3)C(O)C(C)O2)Oc2ccc(cc2Cl)C1O (stereo not drawn) [Compound 102],≤ 0.06 µg/mL,4 µg/mL,2 µg/mL,1 µg/mL,4 µg/mL,–,1 µg/mL,≤ 0.06 µg/mL,1 µg/mL,≤ 0.06 µg/mL,≤ 0.06 µg/mL,1 µg/mL,≤ 0.06 µg/mL,≤ 0.06 µg/mL,≤ 0.06 µg/mL,≤ 0.06 µg/mL,1 µg/mL,0.13 µg/mL,2.0 µg/mL,0.25 µg/mL,MIC [15]: 1 µg/mL
CNC(CC(C)C)C(=O)NC1C(=O)NC(CC(N)=O)C(=O)NC2C(=O)NC3C(=O)NC(C(=O)NC(C(=O)O)c4cc(O)cc(O)c4-c4cc3ccc4O)C(OC3CC(C)(N)C(O)C(C)O3)c3ccc(c(Cl)c3)Oc3cc2cc(c3OC2OC(CO)C(O)C(O)C2OC2CC(C)(NCc3ccc(OS(C)(=O)=O)cc3)C(O)C(C)O2)Oc2ccc(cc2Cl)C1O (stereo not drawn) [Compound 149],≤ 0.06 µg/mL,16 µg/mL,4 µg/mL,1 µg/mL,16 µg/mL,1 µg/mL,0.5 µg/mL,≤ 0.06 µg/mL,4 µg/mL,≤ 0.06 µg/mL,0.5 µg/mL,0.5 µg/mL,≤ 0.06 µg/mL,≤ 0.06 µg/mL,≤ 0.06 µg/mL,≤ 0.06 µg/mL,1 µg/mL,0.66 µg/mL,45 µg/mL,≤ 0.06 µg/mL,–
CNC(CC(C)C)C(=O)NC1C(=O)NC(CC(N)=O)C(=O)NC2C(=O)NC3C(=O)NC(C(=O)NC(C(=O)O)c4cc(O)cc(O)c4-c4cc3ccc4O)C(OC3CC(C)(N)C(O)C(C)O3)c3ccc(cc3)Oc3cc2cc(c3OC2OC(CO)C(O)C(O)C2OC2CC(C)(NCc3ccc(Oc4ccccc4)cc3)C(O)C(C)O2)Oc2ccc(cc2)C1O (stereo not drawn) [Compound 184],–,≤ .06 µg/mL,0.25 µg/mL,4 µg/mL,4 µg/mL,8 µg/mL,0.5 µg/mL,0.5 µg/mL,≤ .06 µg/mL,≤ .06 µg/mL,0.5 µg/mL,2 µg/mL,≤ .06 µg/mL,≤ .06 µg/mL,–,1 µg/mL,1 µg/mL,0.570 µg/mL,27 µg/mL,0.5 µg/mL,MIC [15]: 1 µg/mL
